The target in assay [1] is T1, Acetylcholinesterase (Bos taurus, UniProt P23795).
T1 sequence (P23795 whole entry): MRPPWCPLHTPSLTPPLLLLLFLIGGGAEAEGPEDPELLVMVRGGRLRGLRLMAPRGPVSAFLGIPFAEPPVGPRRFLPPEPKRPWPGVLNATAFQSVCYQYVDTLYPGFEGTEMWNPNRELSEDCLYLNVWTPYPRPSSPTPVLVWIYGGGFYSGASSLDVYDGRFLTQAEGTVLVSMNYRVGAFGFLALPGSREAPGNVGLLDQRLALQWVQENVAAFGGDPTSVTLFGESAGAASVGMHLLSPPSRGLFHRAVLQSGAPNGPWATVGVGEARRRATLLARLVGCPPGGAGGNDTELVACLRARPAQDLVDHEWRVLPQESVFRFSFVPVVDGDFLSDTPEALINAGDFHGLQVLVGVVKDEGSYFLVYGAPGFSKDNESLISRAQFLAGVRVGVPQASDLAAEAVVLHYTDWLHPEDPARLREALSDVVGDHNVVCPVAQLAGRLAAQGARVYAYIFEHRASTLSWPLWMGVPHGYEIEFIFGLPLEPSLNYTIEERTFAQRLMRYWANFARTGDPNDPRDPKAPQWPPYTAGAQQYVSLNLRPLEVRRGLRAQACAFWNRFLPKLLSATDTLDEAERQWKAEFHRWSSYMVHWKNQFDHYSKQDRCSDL
Description: Inhibition of bovine erythrocyte AChE

For assay [2], the target named is T1, Acetylcholinesterase. The source holds these as a separate data set.
Description: Inhibition of bovine erythrocyte AChE after 45 mins
Assay [3] concerns the target Cholinesterase (Homo sapiens, UniProt P06276).
Description: Inhibition of human serum BChE
Assay [4] deals with Acetylcholinesterase (Homo sapiens, UniProt P22303).
Description: Inhibition of human erythrocyte AChE

The structures appear in SMILES notation.

The term IC50 denotes the concentration that gives 50% inhibition. Low readings indicate greater potency, high ones weaker potency.

Cholinesterase, sequence (P06276 whole entry): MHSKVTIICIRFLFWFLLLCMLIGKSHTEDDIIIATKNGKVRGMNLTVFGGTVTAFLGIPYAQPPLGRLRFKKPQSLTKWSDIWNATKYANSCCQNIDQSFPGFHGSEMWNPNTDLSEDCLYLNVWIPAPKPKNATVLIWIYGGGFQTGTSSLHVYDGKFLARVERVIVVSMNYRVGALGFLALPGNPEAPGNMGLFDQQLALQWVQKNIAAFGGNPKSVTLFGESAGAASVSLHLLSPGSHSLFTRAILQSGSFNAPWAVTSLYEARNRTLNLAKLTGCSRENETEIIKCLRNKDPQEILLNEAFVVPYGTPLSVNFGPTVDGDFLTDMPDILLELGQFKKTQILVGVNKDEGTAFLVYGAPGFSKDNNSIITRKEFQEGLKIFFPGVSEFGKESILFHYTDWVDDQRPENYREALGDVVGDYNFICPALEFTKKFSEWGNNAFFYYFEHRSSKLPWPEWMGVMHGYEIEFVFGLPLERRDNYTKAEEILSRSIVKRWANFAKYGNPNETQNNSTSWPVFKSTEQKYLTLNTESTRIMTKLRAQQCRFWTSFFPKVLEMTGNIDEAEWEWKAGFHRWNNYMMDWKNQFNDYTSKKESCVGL
Acetylcholinesterase (Homo sapiens, UniProt P22303), sequence (P22303 whole entry): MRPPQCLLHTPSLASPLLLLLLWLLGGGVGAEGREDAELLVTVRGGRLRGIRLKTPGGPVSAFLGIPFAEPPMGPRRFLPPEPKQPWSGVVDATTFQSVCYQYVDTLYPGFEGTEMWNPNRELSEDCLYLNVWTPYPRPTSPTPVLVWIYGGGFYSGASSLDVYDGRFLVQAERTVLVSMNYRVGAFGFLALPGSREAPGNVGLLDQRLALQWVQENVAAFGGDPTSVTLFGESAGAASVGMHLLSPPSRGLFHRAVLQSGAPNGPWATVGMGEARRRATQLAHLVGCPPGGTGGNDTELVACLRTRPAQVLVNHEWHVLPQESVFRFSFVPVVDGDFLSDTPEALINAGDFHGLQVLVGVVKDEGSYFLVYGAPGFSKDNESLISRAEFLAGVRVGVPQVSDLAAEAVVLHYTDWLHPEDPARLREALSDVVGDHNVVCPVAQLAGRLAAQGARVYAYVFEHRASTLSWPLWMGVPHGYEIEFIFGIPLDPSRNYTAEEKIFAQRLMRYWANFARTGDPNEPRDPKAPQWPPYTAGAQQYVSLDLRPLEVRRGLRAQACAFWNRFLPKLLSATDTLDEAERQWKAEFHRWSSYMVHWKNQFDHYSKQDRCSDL

For `CC1=CC2Cc3nc4cc(Cl)ccc4c(N)c3C(C1)C2N` (racemic; form 2), the IC50 in assay [1] stood at 482 nM; in assay [2], 478 nM; in assay [3], 601 nM.

`CC(=O)NC1C2C=C(C)CC1c1c(nc3cc(Cl)ccc3c1N)C2` (racemic; form 2): the IC50 in assay [2] is 1330 nM; in assay [3], over 10000 nM.

For the molecule `CC12CC3Cc4nc5cc(Cl)ccc5c(N)c4C(C1)C3N2S(C)(=O)=O` (racemic), the results for the IC50 in assay [1], in assay [2] and in assay [3] were 1320 nM, 304 nM and 9220 nM, respectively.

`CC(=O)NC1C2C=C(C)CC1c1c(nc3cc(Cl)ccc3c1N)C2` (racemic; form 1): the results for the IC50 in assay [1], in assay [2] and in assay [3] were 1690 nM, 1370 nM and 8490 nM, respectively.

Consider `CC1=CC2Cc3nc4cc(Cl)ccc4c(N)c3C(C1)C2NC=O` (racemic; form 1), for which the values for the IC50 in assay [3] and in assay [4] were over 10000 nM and 98 nM, respectively.

In the case of `CC1=CC2Cc3nc4cc(Cl)ccc4c(N)c3C(C1)C2NS(C)(=O)=O` (racemic; form 1), the IC50 in assay [1] was 118 nM; in assay [2] it was 39 nM; in assay [3] it was over 10000 nM; in assay [4], 40.5 nM.

In the case of `CC1=C[C@@H]2Cc3nc4cc(Cl)ccc4c(N)c3[C@H](C1)C2`, in assay [1], the IC50 was 1.15 nM.

Regarding `CC1=CC2Cc3nc4cc(Cl)ccc4c(N)c3C(C1)C2NC=O` (racemic; form 2), in assay [3], the IC50 came out at 3980 nM. In other words, the single-digit micromolar range.

Regarding `CCC1=C[C@@H]2Cc3nc4cc(C)ccc4c(N)c3[C@H](C1)C2`, half-maximal inhibition in assay [1] (IC50) was put at 4.5 nM.

`CCC1=CC2Cc3nc4cc(Cl)ccc4c(N)c3C(C1)C2` (racemic) displayed an IC50 in assay [1] of 2.77 nM.

Turning to `CC12CC3Cc4nc5cc(Cl)ccc5c(N)c4C(C1)C3N2` (racemic), the IC50 is 5680 nM in assay [1], 4380 nM in assay [2] and over 10000 nM in assay [3].

As for `CC1=CC2Cc3nc4cc(Cl)ccc4c(N)c3C(C1)C2NS(C)(=O)=O` (racemic; form 2), the half-maximal inhibitory concentration (IC50) in assay [1] was determined as 1370 nM; in assay [2], 2450 nM.

Molecule `CCC1=C[C@@H]2Cc3nc4ccccc4c(N)c3[C@H](C1)C2` registered an IC50 in assay [1] of 27.4 nM. In other words, the double-digit nanomolar range.

With `CCC1=C[C@@H]2Cc3nc4cc(Cl)ccc4c(N)c3[C@H](C1)C2`, in assay [1], the IC50 amounted to 1.3 nM.

Turning to `CC1=CC2Cc3nc4cc(Cl)ccc4c(N)c3C(C1)C2N` (racemic; form 1), the IC50 was determined as 389 nM in assay [1], 447 nM in assay [2], 6480 nM in assay [3] and 225 nM in assay [4].

(Values after ChEMBL document CHEMBL1137340, “Binding of 13-amidohuprines to acetylcholinesterase: exploring the ligand-induced conformational change of the gly117-gly118 peptide bond in the oxyanion hole” (J Med Chem, 2006).)
